Laboratory results published in patent publication US12054562B2, “Cell-permeable inhibitory agent and methods of use thereof in treatment of cognitive and mood disorders” (priority 2015, dated 2024).

How the values were obtained:
[1] = system: radixin; assay: Western blot of radixin phosphorylation in hippocampus of treated mice; assay type: in vivo, mouse; details: etomidate 8 mg/kg, i.p., hippocampi 24 hrs later
Experimental: We next asked whether injection of inhibitory peptide, when administered to mice in vivo by I.P. injection, reduced the level of α5GABAA receptors expressed in the hippocampus. To test whether the peptide reduces α5GABAA receptor cell-surface expression in vivo, we took advantage of a mouse model that we developed recently (Zurek, et al., 2014), in which up-regulation of α5GABAA receptor cell surface expression causes memory deficits. Adult mice (22-25 g) were treated with etomidate (8 mg/kg, i.p.), and sacrificed 24 hrs later according to a protocol approved by the Animal Care Committee of the University of Toronto. The hippocampi were collected and subject to experiments. We first measured the level of radixin phosphorylation, because radixin phosphorylation is required for the recruitment of α5GABAA receptors to extrasynaptic sites of the neurons (Loebrich et al., 2006; Hausrat et al., 2015). The antibody against threonine at 564 of radixin, which is specific for radixin phosphorylation involving α5GABAA receptor extra-synaptic trafficking, was used for these studies (Choii et al., 2015; Hausrat et al., 2015). […] We next examined whether the inhibitory peptide prevented α5GABAA receptor from trafficking to surface membrane in vivo by studying ex vivo brain slices. […]

[2] = system: GABAA receptor-mediated tonic current in hippocampal neurons; assay: Whole-cell voltage-clamp recordings of tonic current in astrocyte-neuron co-cultures; assay type: cell-based, mouse; details: etomidate 1 μM, 1 h; measured 24 h after treatment
[3] = system: α5GABAA receptor cell-surface expression; assay: Receptor cell-surface ELISA assay in cultured hippocampal neurons; assay type: cell-based, mouse; details: medium from astrocytes treated with etomidate 1 μM, 1 hr; 24 hrs incubation
Experimental: This experimental cell culture model was used to test the effects of the inhibitory peptide on an overexpression of α5GABAA receptors on the surface of neurons. The medium from astrocytes that were treated with etomidate (1 μM, 1 hr) (conditioned medium) was collected, and the medium bathing cultured hippocampal neurons was exchanged with the astrocyte-conditioned medium. The cells were incubated at 37° C., 5% CO2 with the peptide or scramble peptide (2 μM). After 24 hrs incubation, the cells were used for receptor cell-surface ELISA assay. The cells were fixed in 4% paraformaldehyde for 20 min in the presence (permeabilized) or absence (non-permeabilized) of 1% Triton-X100. The cells, after 3 times wash with cold PBS and blocked with 5% bovine album solution, were incubated with a α5 antibody (Santa Cruz Biotech Inc.) at 4° C. overnight. The next day the cells were thoroughly washed with PBS and incubated with the horseradish peroxidase (HRP)-conjugated secondary antibody for 2 hrs. With HRP substrate added and color developed in the medium, the results were determined with microplate reader.
The cell surface expression of α5 subunit was presented as the ratio of the colorimetric reading under non-permeabilized conditions to those permeabilized conditions. Consistent with the previous report, etomidate increases α5GABAA receptor surface expression. This increase was blocked by the specific peptide, but not the scramble peptide (FIG. 6A).
For astrocyte culture, cortical astrocytes were isolated from embryonic day 18 (E18) mouse embryos. Cells were allowed to grow to confluence in MEM and 10% fetal bovine serum (FBS; Life Technologies, Grand Island, New York) for 14 d. Cells were then enzymatically dissociated with trypsin-EDTA (0.05%; Life Technologies, Grand Island, New York), and passaged three times to obtain a nearly pure astrocytic culture. Astrocytes were then plated at a density of 25,000 cells per dish. […]

[4] = system: etomidate-induced memory deficits in mice; assay: Novel object recognition task, prevention paradigm; assay type: in vivo, mouse; details: Etom 8 mg/kg i.p., NOR next day
Excerpt: The novel object recognition task involves the presentation of two identical objects for visual inspection (in the case of humans and non-human primates) and exploration in the case of rodents. After a delay, one of the original objects is presented together with a new (novel) object. Humans and animals normally spend time more time looking at (or in the case of mice, exploring) the novel object. Indeed, the test relies on the innate preference of humans and animals for novelty. The inspection or interaction time differs only if the familiar object is recognized. Otherwise, the subject spends an equal amount of time inspecting both objects. […]
In the present study, mice were handled two times a day, 5 min each before start of behavioral experiments. Object recognition was assessed in a circle opaque chamber with the diameter of 38.5 cm in a regular lit room. […] Movement and interaction with the objects was recorded with a video camera that was mounted above the chamber. The exploratory behavior and mouse activity was analyzed blindly by a person with a good training and the software EthoVision, XT v11.5 provided by the Noldus Information Tech Inc., (Leesburg VA, USA). […] Memory was assessed by measuring the novelty preference ratio (i.e., the ratio of time spent exploring the novel object to the time spent exploring both objects). […]

[5] = system: patients; details: cited from earlier work
[6] = system: healthy subjects; details: cited from earlier work
[7] = target: T1, al subunit-containing GABAA receptors (Homo sapiens, UniProt P14867+P18507); details: at high concentrations; cited from earlier work
T1 sequence (P14867 28-456): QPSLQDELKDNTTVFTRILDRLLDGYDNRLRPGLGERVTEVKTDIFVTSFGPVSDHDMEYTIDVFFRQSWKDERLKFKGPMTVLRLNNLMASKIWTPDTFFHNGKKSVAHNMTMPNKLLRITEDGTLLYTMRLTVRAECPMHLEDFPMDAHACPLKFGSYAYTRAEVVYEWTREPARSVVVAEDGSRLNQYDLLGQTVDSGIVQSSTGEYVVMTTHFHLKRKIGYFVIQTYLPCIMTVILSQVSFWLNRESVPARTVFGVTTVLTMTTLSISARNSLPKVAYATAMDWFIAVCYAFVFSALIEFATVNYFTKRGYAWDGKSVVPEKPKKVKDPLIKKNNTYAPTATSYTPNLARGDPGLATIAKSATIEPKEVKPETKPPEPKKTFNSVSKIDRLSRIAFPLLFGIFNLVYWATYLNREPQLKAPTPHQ
T1 sequence (P18507 40-467 limits assumed): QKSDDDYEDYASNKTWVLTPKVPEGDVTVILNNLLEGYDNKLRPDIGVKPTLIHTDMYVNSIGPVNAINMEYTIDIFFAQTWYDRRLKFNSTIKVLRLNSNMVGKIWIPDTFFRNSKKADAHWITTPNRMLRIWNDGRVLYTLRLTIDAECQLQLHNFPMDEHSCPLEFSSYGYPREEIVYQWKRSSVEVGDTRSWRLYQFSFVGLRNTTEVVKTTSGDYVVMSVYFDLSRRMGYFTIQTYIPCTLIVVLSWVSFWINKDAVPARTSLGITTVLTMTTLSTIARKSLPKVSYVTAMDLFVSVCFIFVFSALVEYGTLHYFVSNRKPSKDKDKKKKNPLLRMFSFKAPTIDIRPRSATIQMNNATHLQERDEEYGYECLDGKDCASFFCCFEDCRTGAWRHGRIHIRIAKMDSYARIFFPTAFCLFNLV
T1 sequence (P28472 26-473 partner): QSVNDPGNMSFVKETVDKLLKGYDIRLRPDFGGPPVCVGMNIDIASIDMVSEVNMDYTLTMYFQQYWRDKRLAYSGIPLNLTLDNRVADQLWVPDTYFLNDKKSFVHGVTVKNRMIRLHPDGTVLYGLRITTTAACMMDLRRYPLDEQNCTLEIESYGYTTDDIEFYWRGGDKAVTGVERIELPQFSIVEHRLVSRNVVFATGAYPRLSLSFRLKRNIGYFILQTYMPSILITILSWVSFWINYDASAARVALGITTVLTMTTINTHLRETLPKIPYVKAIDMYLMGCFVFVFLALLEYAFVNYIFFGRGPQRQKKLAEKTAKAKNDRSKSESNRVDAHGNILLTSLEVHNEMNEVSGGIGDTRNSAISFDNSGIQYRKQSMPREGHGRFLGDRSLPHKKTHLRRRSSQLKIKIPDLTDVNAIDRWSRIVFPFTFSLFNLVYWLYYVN

[8] = target: T2, α5 subunit-radixin interaction (Mus musculus, UniProt P26043); assay: Co-immunoprecipitation and Western blot of α5 subunit-radixin coupling in hippocampal tissue lysate; assay type: binding; details: 20 μM peptide without TAT sequence, one hour incubation
T2 construct: tissue lysate prepared from the hippocampus of adult mice; from tissue; host or cells: hippocampus of adult mice (C57BL/6J×SvEv)
Experimental: The experiments used tissue lysate prepared from the hippocampus of adult mice (C57BL/6J×SvEv, 2-4 month old, male). Hippocampal tissue was homogenized in ice-cold RIPA buffer (20 mM Tris-HCL, pH 7.5, 150 mM NaCl, 1 mM Na2EDTA, 1 mM EGTA, 1% NP-40, 1% sodium deoxycholate, 2.5 mM sodium pyrophosphate, 1 mM β-glycerophosphate) supplemented with 1 mM sodium orthovanadate and 1% protease inhibitor cocktail and 1% phosphatase inhibitor cocktail (Roche Diagnostics, GmbH, Manheim Germany). The tissue lysate was subsequently spun at 14,000 rpm for 30 min with the Microfuge 22R Centrifuge (Beckman Coulter™, Brea, California, US). The supernatant was collected and frozen at −20 C°. The next day, the supernatant, after thawing, was re-centrifuged at 14,000 rpm for another 30 min to clear the potential undissolved or pellet substances. After spinning twice, the supernatant was collected for subsequent experiments.
One hour following the incubation, the antibodies (2-4 μg) against either α5 subunit (cat #sc—31417, Santa Cruz Biotechnology, Inc., 10410 Finnell St. Dallas, TX, 75220, USA) or radixin (cat #ab91312, Abcam Inc., c/o 913860, PO Box 4090 Stn A, Toronto, ON M5W 0E9), or 4 μg of non-specific IgG protein (cat #sc—2028, Santa Cruz Biotechnology, Inc., 10410 Finnell St. Dallas, TX, 75220, USA), were added to the lysate solution. […]

T2 sequence (P26043 whole entry): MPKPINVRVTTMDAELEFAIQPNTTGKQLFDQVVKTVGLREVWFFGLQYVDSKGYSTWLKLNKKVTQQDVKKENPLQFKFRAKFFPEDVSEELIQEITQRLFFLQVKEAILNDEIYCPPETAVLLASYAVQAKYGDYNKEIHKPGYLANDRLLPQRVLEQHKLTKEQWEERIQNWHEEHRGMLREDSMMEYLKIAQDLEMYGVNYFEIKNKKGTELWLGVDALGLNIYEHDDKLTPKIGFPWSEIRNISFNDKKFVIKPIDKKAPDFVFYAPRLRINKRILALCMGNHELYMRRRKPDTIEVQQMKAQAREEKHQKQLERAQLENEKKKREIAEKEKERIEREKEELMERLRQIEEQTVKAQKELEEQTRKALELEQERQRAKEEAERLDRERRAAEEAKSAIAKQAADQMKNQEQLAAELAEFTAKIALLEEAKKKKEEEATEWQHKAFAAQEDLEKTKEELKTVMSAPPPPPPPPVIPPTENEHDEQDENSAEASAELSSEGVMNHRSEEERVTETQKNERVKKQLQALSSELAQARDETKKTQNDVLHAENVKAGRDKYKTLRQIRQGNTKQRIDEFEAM

Question: With `CCOC(=O)c1cncn1[C@H](C)c1ccccc1` [etomidate] as the compound, how does the “radixin phosphorylation (pThr564)” value [1] read?
Answer: The value was “increases”.

Question: What about the “total radixin protein level” value [1] of the same compound?
Answer: Its value is “does not alter”.

Question: What about the “amplitude of the tonic current” value [2] of the same compound?
Answer: The value was “caused an increase”.

Question: What about the “α5GABAA receptor surface expression” value [3] of the same compound?
Answer: Its value is “increases”.

Question: And the “preference for the novel object (NOR)” value [4]?
Answer: Its value is “showed no preference”.

Question: Which “reason clinical trial was stopped” value [5] does the source give for `Cc1cc(-c2nnc3c4ccccc4c(OCc4cn(C)nn4)nn23)no1` [α5IA] here?
Answer: The value was “renal toxicity”.

Question: And the ethanol-induced impaired performance [6]?
Answer: The ethanol-induced impaired performance was “improves”.

Question: What about the “action on al subunit-containing GABAA receptors” value [7] of the same compound?
Answer: The value was “activates”.

Question: Which “association between α5 subunit and radixin” value [8] does the source give for “TYFGRKNALWKAWKGD (Scramble peptide) [reference compound]” here?
Answer: Its value is “did not reduce this association”.
